Experimental data taken from ChEMBL document CHEMBL1144156 (Bioorg Med Chem Lett, 2008).

How the values were obtained:
Progesterone receptor [1] = molecular target: T1, Progesterone receptor (Homo sapiens, UniProt P06401); assay: Antagonist activity at progesterone receptor assessed as progesterone-induced alkaline phosphatase activity in human T47D cells; type: functional, cell-based
T1 sequence (P06401 whole entry): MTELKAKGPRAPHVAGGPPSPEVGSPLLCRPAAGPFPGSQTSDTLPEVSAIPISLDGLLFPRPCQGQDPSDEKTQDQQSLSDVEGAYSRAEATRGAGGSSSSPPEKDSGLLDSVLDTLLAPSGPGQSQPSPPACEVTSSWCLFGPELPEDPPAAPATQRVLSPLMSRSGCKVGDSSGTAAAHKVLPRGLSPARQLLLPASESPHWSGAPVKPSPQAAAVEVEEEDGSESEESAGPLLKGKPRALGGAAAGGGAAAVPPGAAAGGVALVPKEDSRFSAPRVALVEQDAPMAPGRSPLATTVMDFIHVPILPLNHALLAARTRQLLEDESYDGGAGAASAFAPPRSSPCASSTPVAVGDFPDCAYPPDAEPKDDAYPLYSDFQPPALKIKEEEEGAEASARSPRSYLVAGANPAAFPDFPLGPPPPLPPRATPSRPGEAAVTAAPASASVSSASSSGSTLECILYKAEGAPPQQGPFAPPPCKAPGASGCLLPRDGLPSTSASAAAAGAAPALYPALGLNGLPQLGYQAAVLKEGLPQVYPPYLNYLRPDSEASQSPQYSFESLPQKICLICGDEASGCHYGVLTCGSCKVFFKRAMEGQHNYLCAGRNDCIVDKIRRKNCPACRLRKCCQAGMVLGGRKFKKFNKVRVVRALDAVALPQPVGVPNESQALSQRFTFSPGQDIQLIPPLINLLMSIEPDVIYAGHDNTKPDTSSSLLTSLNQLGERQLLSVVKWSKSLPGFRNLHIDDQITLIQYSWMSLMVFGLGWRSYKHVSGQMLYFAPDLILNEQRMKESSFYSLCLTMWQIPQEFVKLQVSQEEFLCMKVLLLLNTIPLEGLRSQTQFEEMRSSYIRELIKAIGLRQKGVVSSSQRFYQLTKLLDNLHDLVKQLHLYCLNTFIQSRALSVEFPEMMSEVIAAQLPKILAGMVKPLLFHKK

Progesterone receptor [2] = molecular target: T1, Progesterone receptor; assay: Activity at progesterone receptor assessed as alkaline phosphatase activity in human T47D cells; type: cell-based
Progesterone receptor [3] = molecular target: T1, Progesterone receptor; assay: Displacement of [3H]progesterone from progesterone receptor in human T47D cells; type: cell-based
Estrogen receptor = molecular target: T2, Estrogen receptor (Homo sapiens, UniProt P03372); assay: Antagonist activity at estrogen receptor by Gal4-DNA binding domain-hormone receptor LBD one-hybrid assay
T2 sequence (P03372 whole entry): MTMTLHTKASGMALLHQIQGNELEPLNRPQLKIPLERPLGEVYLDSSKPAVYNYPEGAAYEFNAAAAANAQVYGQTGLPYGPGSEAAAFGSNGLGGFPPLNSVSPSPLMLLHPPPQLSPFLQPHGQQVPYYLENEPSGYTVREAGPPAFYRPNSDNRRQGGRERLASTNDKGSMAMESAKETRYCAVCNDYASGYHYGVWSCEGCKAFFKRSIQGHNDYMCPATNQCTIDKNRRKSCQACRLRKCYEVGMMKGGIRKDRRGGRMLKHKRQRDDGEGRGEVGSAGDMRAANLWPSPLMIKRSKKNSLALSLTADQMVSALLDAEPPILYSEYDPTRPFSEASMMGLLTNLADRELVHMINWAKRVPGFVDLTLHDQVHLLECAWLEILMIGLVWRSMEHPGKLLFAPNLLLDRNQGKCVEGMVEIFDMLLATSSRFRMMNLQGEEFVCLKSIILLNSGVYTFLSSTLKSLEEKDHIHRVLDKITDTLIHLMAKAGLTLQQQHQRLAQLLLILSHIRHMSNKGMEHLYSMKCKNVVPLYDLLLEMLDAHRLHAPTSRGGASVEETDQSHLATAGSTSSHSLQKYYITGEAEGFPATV

Androgen receptor = molecular target: T3, Androgen receptor (Homo sapiens, UniProt P10275); assay: Antagonist activity at androgen receptor by Gal4-DNA binding domain-hormone receptor LBD one-hybrid assay
T3 sequence (P10275 whole entry): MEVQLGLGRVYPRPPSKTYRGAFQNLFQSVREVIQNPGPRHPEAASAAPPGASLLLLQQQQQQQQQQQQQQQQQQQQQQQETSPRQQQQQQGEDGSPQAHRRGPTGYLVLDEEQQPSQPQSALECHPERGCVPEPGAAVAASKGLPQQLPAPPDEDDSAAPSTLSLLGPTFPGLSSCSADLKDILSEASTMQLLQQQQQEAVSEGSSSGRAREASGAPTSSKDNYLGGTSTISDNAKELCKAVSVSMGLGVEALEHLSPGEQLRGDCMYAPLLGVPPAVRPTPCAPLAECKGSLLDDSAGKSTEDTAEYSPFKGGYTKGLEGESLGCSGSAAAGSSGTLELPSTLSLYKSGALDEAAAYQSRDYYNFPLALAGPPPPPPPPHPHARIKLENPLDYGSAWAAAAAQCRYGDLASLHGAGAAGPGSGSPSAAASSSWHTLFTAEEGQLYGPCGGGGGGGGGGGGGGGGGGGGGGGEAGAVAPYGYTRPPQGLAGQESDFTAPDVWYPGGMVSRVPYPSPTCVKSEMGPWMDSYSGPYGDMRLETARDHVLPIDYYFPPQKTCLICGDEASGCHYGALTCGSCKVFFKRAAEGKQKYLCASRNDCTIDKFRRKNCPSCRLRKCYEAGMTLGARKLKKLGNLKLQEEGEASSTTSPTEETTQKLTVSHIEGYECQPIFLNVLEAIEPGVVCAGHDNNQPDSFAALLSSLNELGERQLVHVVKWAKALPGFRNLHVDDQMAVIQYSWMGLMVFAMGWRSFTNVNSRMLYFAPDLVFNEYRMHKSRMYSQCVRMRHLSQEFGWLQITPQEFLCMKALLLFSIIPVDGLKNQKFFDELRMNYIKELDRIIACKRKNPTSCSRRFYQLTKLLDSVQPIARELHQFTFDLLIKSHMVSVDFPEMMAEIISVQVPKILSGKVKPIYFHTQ

Glucocorticoid receptor = molecular target: T4, Glucocorticoid receptor (Homo sapiens, UniProt P04150); assay: Antagonist activity at glucocorticoid receptor by Gal4-DNA binding domain-hormone receptor LBD one-hybrid assay
T4 sequence (P04150 whole entry): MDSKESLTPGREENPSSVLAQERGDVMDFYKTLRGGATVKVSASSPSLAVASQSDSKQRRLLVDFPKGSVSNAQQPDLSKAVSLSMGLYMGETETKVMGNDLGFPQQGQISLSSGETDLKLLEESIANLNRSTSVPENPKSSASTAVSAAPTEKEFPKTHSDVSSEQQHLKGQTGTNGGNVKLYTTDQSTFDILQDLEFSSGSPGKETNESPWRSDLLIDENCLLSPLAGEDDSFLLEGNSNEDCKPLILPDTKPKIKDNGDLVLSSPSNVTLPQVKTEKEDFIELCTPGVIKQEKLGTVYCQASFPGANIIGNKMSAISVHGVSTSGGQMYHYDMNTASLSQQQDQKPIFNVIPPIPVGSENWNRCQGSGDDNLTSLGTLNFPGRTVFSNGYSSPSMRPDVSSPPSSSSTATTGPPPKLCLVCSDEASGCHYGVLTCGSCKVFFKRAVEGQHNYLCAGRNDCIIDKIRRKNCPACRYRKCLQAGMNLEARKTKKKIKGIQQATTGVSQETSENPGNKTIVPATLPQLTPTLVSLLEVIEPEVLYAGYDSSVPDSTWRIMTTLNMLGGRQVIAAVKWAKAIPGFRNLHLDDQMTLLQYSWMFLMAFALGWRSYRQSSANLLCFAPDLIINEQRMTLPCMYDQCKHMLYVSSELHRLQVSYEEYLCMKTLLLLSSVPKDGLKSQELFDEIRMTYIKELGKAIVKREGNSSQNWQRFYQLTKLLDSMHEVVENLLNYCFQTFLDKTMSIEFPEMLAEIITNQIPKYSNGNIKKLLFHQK

[4] = molecular target: T5, Mineralocorticoid receptor (Homo sapiens, UniProt P08235); assay: Antagonist activity at mineralocorticoid receptor by Gal4-DNA binding domain-hormone receptor LBD one-hybrid assay
T5 sequence (P08235 whole entry): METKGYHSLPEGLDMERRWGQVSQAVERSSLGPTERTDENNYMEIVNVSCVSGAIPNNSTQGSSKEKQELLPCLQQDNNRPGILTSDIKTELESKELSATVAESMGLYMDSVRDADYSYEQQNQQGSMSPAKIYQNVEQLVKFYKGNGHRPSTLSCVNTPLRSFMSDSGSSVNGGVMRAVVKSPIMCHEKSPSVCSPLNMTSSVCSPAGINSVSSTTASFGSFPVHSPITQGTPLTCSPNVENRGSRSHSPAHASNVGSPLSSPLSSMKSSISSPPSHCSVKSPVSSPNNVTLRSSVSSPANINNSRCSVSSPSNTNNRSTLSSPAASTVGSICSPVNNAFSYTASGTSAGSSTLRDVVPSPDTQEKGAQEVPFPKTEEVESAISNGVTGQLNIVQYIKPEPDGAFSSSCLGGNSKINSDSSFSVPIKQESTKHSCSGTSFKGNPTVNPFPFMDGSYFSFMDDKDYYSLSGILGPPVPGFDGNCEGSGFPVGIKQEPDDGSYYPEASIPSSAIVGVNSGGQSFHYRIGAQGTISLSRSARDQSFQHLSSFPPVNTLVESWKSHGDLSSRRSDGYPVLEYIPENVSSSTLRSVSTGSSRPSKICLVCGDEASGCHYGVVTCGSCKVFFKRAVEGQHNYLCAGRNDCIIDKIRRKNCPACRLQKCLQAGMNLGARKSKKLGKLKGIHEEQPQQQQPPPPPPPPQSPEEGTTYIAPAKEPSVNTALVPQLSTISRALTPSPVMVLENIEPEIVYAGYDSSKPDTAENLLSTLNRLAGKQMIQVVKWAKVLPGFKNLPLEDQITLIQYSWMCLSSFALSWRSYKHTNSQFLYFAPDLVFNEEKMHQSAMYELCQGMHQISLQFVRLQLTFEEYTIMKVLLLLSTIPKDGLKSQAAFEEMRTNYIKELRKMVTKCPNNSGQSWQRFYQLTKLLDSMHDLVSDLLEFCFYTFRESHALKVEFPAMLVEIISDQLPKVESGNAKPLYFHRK

SMILES | IC50 (Progesterone receptor [1]) [nM] | EC50 (Progesterone receptor [2]) [nM] | IC50 (Progesterone receptor [3]) [nM] | further results
Cn1c(C#N)ccc1-c1ccc2c(c1)C(c1ccc(Cl)s1)(c1ccc(Cl)s1)OCC(=O)N2 | 197 |  |  | 
Cn1c(C#N)ccc1-c1ccc2c(c1)C(C)(c1cccs1)OCC(=O)N2 (stereo not given) |  | 0.8 | 2.4 | 
CC1(c2ccsc2)OCC(=O)Nc2ccc(-c3ccc(C#N)[nH]3)cc21 (stereo not given) |  | 1.1 |  | 
CC1OCC(=O)Nc2ccc(-c3ccc(C#N)n3C)cc21 (stereo not given) |  | 138 |  | 
C[C@@]1(c2ccsc2)OCC(=O)Nc2ccc(-c3ccc(C#N)[nH]3)cc21 |  | 0.5 |  | 
N#Cc1ccc(-c2ccc3c(c2)C2(CCCCC2)OCC(=O)N3)[nH]1 |  | 30.5 |  | 
Cn1c(C#N)ccc1-c1ccc2c(c1)C(C)(c1ccsc1)OCC(=O)N2 (stereo not given) |  | 0.8 | 3.4 | IC50 (Estrogen receptor): > 10000 nM; IC50 (Androgen receptor): 325 nM; IC50 (Glucocorticoid receptor): 127 nM; IC50 [4]: 440 nM
Cn1c(C#N)ccc1-c1ccc2c(c1)C(c1cccc(Cl)c1)(c1cccc(Cl)c1)OCC(=O)N2 | 175 |  |  | 
Cn1c(C#N)ccc1-c1ccc2c(c1)C(C)(C)OCC(=O)N2 |  | 3.3 |  | 
CC1(C)OCC(=O)Nc2ccc(-c3ccc(C#N)[nH]3)cc21 |  | 3.3 | 10.7 | 
CC1OCC(=O)Nc2ccc(-c3ccc(C#N)[nH]3)cc21 (stereo not given) |  | 246 |  | 
CCC1(c2cccs2)OCC(=O)N(C)c2ccc(-c3ccc(C#N)n3C)cc21 (stereo not given) | 120 |  |  | 
CC1(c2cccs2)OCC(=O)Nc2ccc(-c3ccc(C#N)[nH]3)cc21 (stereo not given) |  | 0.7 | 3.8 | 
CC(C)C1(c2cccs2)OCC(=O)Nc2ccc(-c3ccc(C#N)n3C)cc21 (stereo not given) | 36.5 |  |  | 
Cn1c(C#N)ccc1-c1ccc2c(c1)C(c1ccccc1)(c1ccccc1)OCC(=O)N2 | 14.3 |  | 36 | 
C[C@]1(c2ccsc2)OCC(=O)Nc2ccc(-c3ccc(C#N)[nH]3)cc21 |  | 110 |  | 
CCC1(c2cccs2)OCC(=O)Nc2ccc(-c3ccc(C#N)n3C)cc21 (stereo not given) |  |  | 75 | 
Cn1c(C#N)ccc1-c1ccc2c(c1)C(c1ccco1)(c1ccco1)OCC(=O)N2 | 6.6 |  | 28.4 | IC50 (Estrogen receptor): > 10000 nM; IC50 (Androgen receptor): 740 nM; IC50 (Glucocorticoid receptor): > 3000 nM; IC50 [4]: 2800 nM
Cn1c(C#N)ccc1-c1ccc2c(c1)C(C)(c1ccco1)OCC(=O)N2 (stereo not given) |  | 0.4 |  | IC50 (Estrogen receptor): > 10000 nM; IC50 (Androgen receptor): 215 nM; IC50 (Glucocorticoid receptor): 120 nM; IC50 [4]: 155 nM
CN1C(=O)COC(C)(c2cccs2)c2cc(-c3ccc(C#N)n3C)ccc21 (stereo not given) |  | 37.5 |  | 
Cn1c(C#N)ccc1-c1ccc2c(c1)C(c1cccs1)(c1cccs1)OCC(=O)N2 |  |  | 60 | IC50 (Estrogen receptor): > 10000 nM; IC50 (Androgen receptor): 775 nM; IC50 (Glucocorticoid receptor): > 3000 nM; IC50 [4]: 2300 nM
CN1C(=O)COC(c2ccccc2)(c2ccccc2)c2cc(-c3ccc(C#N)n3C)ccc21 | 500 |  |  | 
CCCC1(c2cccs2)OCC(=O)Nc2ccc(-c3ccc(C#N)n3C)cc21 (stereo not given) | 56.6 |  |  | 
